According to patent US20250127162A1, “METHODS AND COMPOSITIONS FOR CONTROLLING PESTS IN RICE” (Globachem NV, priority 2022, published 2025):

Test system: Chilo suppressalis
Assay: Rice field trials, Chilo suppressalis insect damage / white heads (Example 1, Trials 3-4, Thailand)
Assay type: in vivo
Settings: for percent reduction in insect damage relative to untreated control: UTC given as 0
Description: All applications were made with an EC formulation containing 650 g/L of pelargonic acid (e.g., 685 g/L of 95% purity pelargonic acid), an anionic emulsifier and a branched fatty acid ester solvent. […] Trials 1 4 assessing the use of pelargonic acid for controlling Chilo suppressalis in rice were conducted in Spain and Thailand. Application A was made to the crops at the beginning of infestations; for these trials, Stage BBCH 59; Application B was made 14 days after Application A. Trial 3 was conducted in Thailand using a water volume of 500 L/ha of water per application unless otherwise indicated. Insect Damage ([…] %), Insect Damage (Number) and Phytotoxicity were assessed at various treatment evaluation intervals. Population levels were recorded by counting number of rice plants per hill, number of white head (damage from rice stem borer) followed by calculation of % insect damage. Trial 4 was conducted in Thailand using a water volume of 500 L/ha of water per application unless otherwise indicated. Insect Damage ([…] %), Insect Damage (Number) and Phytotoxicity were assessed at various treatment evaluation intervals. Population levels were recorded by counting number of rice plants per hill, number of white head (damage from rice stem borer) followed by calculation of % insect damage.

[1] = Trial 3, 21 DAB, water volume 500 L/ha, rate in treatment name, Prevathon 0.5 L/ha, listed as PA 2600 g/ha
[2] = Trial 4, 0 DAA, water volume 200 L/ha
[3] = Trial 4, 0 DAB, water volume 200 L/ha
[4] = Trial 4, 0 DAB, water volume 500 L/ha, rate in treatment name, Prevathon 0.5 L/ha, listed as PA 585 g/ha
[5] = Trial 4, 0 DAB, water volume 500 L/ha, rate in treatment name, Prevathon 0.5 L/ha, listed as PA 975 g/ha
[6] = Trial 4, 0 DAB, water volume 500 L/ha, rate in treatment name, Prevathon 0.5 L/ha, listed as PA 1300 g/ha
[7] = Trial 4, 0 DAB, water volume 500 L/ha, rate in treatment name, Prevathon 0.5 L/ha, listed as PA 2600 g/ha
[8] = Trial 4, 7 DAA, water volume 200 L/ha
[9] = Trial 4, 7 DAA, water volume 500 L/ha, rate in treatment name, Prevathon 0.5 L/ha, listed as PA 585 g/ha
[10] = Trial 4, 7 DAA, water volume 500 L/ha, rate in treatment name, Prevathon 0.5 L/ha, listed as PA 975 g/ha
[11] = Trial 4, 7 DAA, water volume 500 L/ha, rate in treatment name, Prevathon 0.5 L/ha, listed as PA 1300 g/ha
[12] = Trial 4, 7 DAA, water volume 500 L/ha, rate in treatment name, Prevathon 0.5 L/ha, listed as PA 2600 g/ha
[13] = Trial 4, 7 DAB, water volume 200 L/ha
[14] = Trial 4, 7 DAB, water volume 500 L/ha, rate in treatment name, Prevathon 0.5 L/ha, listed as PA 585 g/ha
[15] = Trial 4, 7 DAB, water volume 500 L/ha, rate in treatment name, Prevathon 0.5 L/ha, listed as PA 975 g/ha
[16] = Trial 4, 7 DAB, water volume 500 L/ha, rate in treatment name, Prevathon 0.5 L/ha, listed as PA 1300 g/ha
[17] = Trial 4, 7 DAB, water volume 500 L/ha, rate in treatment name, Prevathon 0.5 L/ha, listed as PA 2600 g/ha
[18] = Trial 4, 10 DAA, water volume 200 L/ha
[19] = Trial 4, 10 DAA, water volume 500 L/ha, rate in treatment name, Prevathon 0.5 L/ha, listed as PA 585 g/ha
[20] = Trial 4, 10 DAA, water volume 500 L/ha, rate in treatment name, Prevathon 0.5 L/ha, listed as PA 975 g/ha
[21] = Trial 4, 10 DAA, water volume 500 L/ha, rate in treatment name, Prevathon 0.5 L/ha, listed as PA 1300 g/ha
[22] = Trial 4, 10 DAA, water volume 500 L/ha, rate in treatment name, Prevathon 0.5 L/ha, listed as PA 2600 g/ha
[23] = Trial 4, 10 DAB, water volume 200 L/ha
[24] = Trial 4, 10 DAB, water volume 500 L/ha, rate in treatment name, Prevathon 0.5 L/ha, listed as PA 585 g/ha
[25] = Trial 4, 10 DAB, water volume 500 L/ha, rate in treatment name, Prevathon 0.5 L/ha, listed as PA 975 g/ha
[26] = Trial 4, 10 DAB, water volume 500 L/ha, rate in treatment name, Prevathon 0.5 L/ha, listed as PA 1300 g/ha
[27] = Trial 4, 10 DAB, water volume 500 L/ha, rate in treatment name, Prevathon 0.5 L/ha, listed as PA 2600 g/ha
[28] = Trial 4, 14 DAB, water volume 200 L/ha
[29] = Trial 4, 14 DAB, water volume 500 L/ha, rate in treatment name, Prevathon 0.5 L/ha, listed as PA 585 g/ha
[30] = Trial 4, 14 DAB, water volume 500 L/ha, rate in treatment name, Prevathon 0.5 L/ha, listed as PA 975 g/ha
[31] = Trial 4, 14 DAB, water volume 500 L/ha, rate in treatment name, Prevathon 0.5 L/ha, listed as PA 1300 g/ha
[32] = Trial 4, 14 DAB, water volume 500 L/ha, rate in treatment name, Prevathon 0.5 L/ha, listed as PA 2600 g/ha
[33] = Trial 4, 21 DAB, water volume 200 L/ha
[34] = Trial 4, 21 DAB, water volume 500 L/ha, rate in treatment name, Prevathon 0.5 L/ha, listed as PA 585 g/ha
[35] = Trial 4, 21 DAB, water volume 500 L/ha, rate in treatment name, Prevathon 0.5 L/ha, listed as PA 975 g/ha
[36] = Trial 4, 21 DAB, water volume 500 L/ha, rate in treatment name, Prevathon 0.5 L/ha, listed as PA 1300 g/ha
[37] = Trial 4, 21 DAB, water volume 500 L/ha, rate in treatment name, Prevathon 0.5 L/ha, listed as PA 2600 g/ha

SMILES: CCCCCCCCC(=O)O [PA 650 g/ha, pelargonic acid]
- DAMINS % (insect damage, % white heads) [1]: 0.19%
- DAMINS (number): mean number of insect damage (white head symptoms) [1]: 0.75
- DAMINS (number): mean number of insect damage (white head symptoms) [2]: 5.5
- percent reduction in insect damage relative to untreated control [2]: 0%
- percent reduction in insect damage relative to untreated control (Trial 4, 0 DAA, water volume 500 L/ha, rate in treatment name, Prevathon 0.5 L/ha): 0%
- DAMINS (number): mean number of insect damage (white head symptoms) (Trial 4, 0 DAA, water volume 500 L/ha, rate in treatment name, Prevathon 0.5 L/ha, listed as PA 585 g/ha): 4.57
- DAMINS (number): mean number of insect damage (white head symptoms) (Trial 4, 0 DAA, water volume 500 L/ha, rate in treatment name, Prevathon 0.5 L/ha, listed as PA 975 g/ha): 5.19
- DAMINS (number): mean number of insect damage (white head symptoms) (Trial 4, 0 DAA, water volume 500 L/ha, rate in treatment name, Prevathon 0.5 L/ha, listed as PA 1300 g/ha): 5.23
- DAMINS (number): mean number of insect damage (white head symptoms) (Trial 4, 0 DAA, water volume 500 L/ha, rate in treatment name, Prevathon 0.5 L/ha, listed as PA 2600 g/ha): 5.07
- DAMINS (number): mean number of insect damage (white head symptoms) [3]: 1.36
- percent reduction in insect damage relative to untreated control [3]: 71.53%
- percent reduction in insect damage relative to untreated control [4]: 22.87%
- percent reduction in insect damage relative to untreated control [5]: 28.25%
- percent reduction in insect damage relative to untreated control [6]: 38.54%
- percent reduction in insect damage relative to untreated control [7]: 67.46%
- DAMINS (number): mean number of insect damage (white head symptoms) [4]: 3.57
- DAMINS (number): mean number of insect damage (white head symptoms) [5]: 3.34
- DAMINS (number): mean number of insect damage (white head symptoms) [6]: 2.88
- DAMINS (number): mean number of insect damage (white head symptoms) [7]: 1.49
- DAMINS (number): mean number of insect damage (white head symptoms) [8]: 2.94
- percent reduction in insect damage relative to untreated control [8]: 62.66%
- percent reduction in insect damage relative to untreated control [9]: 15.96%
- percent reduction in insect damage relative to untreated control [10]: 22.58%
- percent reduction in insect damage relative to untreated control [11]: 44.41%
- percent reduction in insect damage relative to untreated control [12]: 51.10%
- DAMINS (number): mean number of insect damage (white head symptoms) [9]: 6.67
- DAMINS (number): mean number of insect damage (white head symptoms) [10]: 6.09
- DAMINS (number): mean number of insect damage (white head symptoms) [11]: 4.38
- DAMINS (number): mean number of insect damage (white head symptoms) [12]: 3.87
- DAMINS (number): mean number of insect damage (white head symptoms) [13]: 0.76
- percent reduction in insect damage relative to untreated control [13]: 80.70%
- percent reduction in insect damage relative to untreated control [14]: 27.16%
- percent reduction in insect damage relative to untreated control [15]: 36.66%
- percent reduction in insect damage relative to untreated control [16]: 49.64%
- percent reduction in insect damage relative to untreated control [17]: 66.66%
- DAMINS (number): mean number of insect damage (white head symptoms) [14]: 2.86
- DAMINS (number): mean number of insect damage (white head symptoms) [15]: 2.52
- DAMINS (number): mean number of insect damage (white head symptoms) [16]: 1.93
- DAMINS (number): mean number of insect damage (white head symptoms) [17]: 1.32
- DAMINS (number): mean number of insect damage (white head symptoms) [18]: 1.76
- percent reduction in insect damage relative to untreated control [18]: 80.59%
- percent reduction in insect damage relative to untreated control [19]: 40.99%
- percent reduction in insect damage relative to untreated control [20]: 44.26%
- percent reduction in insect damage relative to untreated control [21]: 56.19%
- percent reduction in insect damage relative to untreated control [22]: 72.62%
- DAMINS (number): mean number of insect damage (white head symptoms) [19]: 5.33
- DAMINS (number): mean number of insect damage (white head symptoms) [20]: 4.99
- DAMINS (number): mean number of insect damage (white head symptoms) [21]: 3.94
- DAMINS (number): mean number of insect damage (white head symptoms) [22]: 2.48
- DAMINS (number): mean number of insect damage (white head symptoms) [23]: 1.06
- percent reduction in insect damage relative to untreated control [23]: 77.49%
- percent reduction in insect damage relative to untreated control [24]: 22.53%
- percent reduction in insect damage relative to untreated control [25]: 51.13%
- percent reduction in insect damage relative to untreated control [26]: 61.44%
- percent reduction in insect damage relative to untreated control [27]: 74.82%
- DAMINS (number): mean number of insect damage (white head symptoms) [24]: 3.71
- DAMINS (number): mean number of insect damage (white head symptoms) [25]: 2.35
- DAMINS (number): mean number of insect damage (white head symptoms) [26]: 1.86
- DAMINS (number): mean number of insect damage (white head symptoms) [27]: 1.19
- DAMINS (number): mean number of insect damage (white head symptoms) [28]: 0.9
- percent reduction in insect damage relative to untreated control [28]: 80.46%
- percent reduction in insect damage relative to untreated control [29]: 19.69%
- percent reduction in insect damage relative to untreated control [30]: 40.42%
- percent reduction in insect damage relative to untreated control [31]: 46.02%
- percent reduction in insect damage relative to untreated control [32]: 76.77%
- DAMINS (number): mean number of insect damage (white head symptoms) [29]: 3.78
- DAMINS (number): mean number of insect damage (white head symptoms) [30]: 2.74
- DAMINS (number): mean number of insect damage (white head symptoms) [31]: 2.54
- DAMINS (number): mean number of insect damage (white head symptoms) [32]: 1.1
- DAMINS (number): mean number of insect damage (white head symptoms) [33]: 1.24
- percent reduction in insect damage relative to untreated control [33]: 74.20%
- percent reduction in insect damage relative to untreated control [34]: 29.88%
- percent reduction in insect damage relative to untreated control [35]: 37.44%
- percent reduction in insect damage relative to untreated control [36]: 52.85%
- percent reduction in insect damage relative to untreated control [37]: 71.12%
- DAMINS (number): mean number of insect damage (white head symptoms) [34]: 3.3
- DAMINS (number): mean number of insect damage (white head symptoms) [35]: 2.96
- DAMINS (number): mean number of insect damage (white head symptoms) [36]: 2.26
- DAMINS (number): mean number of insect damage (white head symptoms) [37]: 1.38
